Measurements published in patent US20020102533A1, “Hepatitis C protease exosite for inhibit or design” (priority 2000, published 2002).
Where a SMILES comes first, the peptide text is derived from it. [ ]: non-standard residue; d: D form. Dip = N[C@H](C(=O)O)C(c1ccccc1)c1ccccc1; Cha = N[C@@H](CC1CCCCC1)C(=O)O

What was measured:
HCV protease 2A = molecular target: T1, HCV protease 2A (Hepatitis C virus genotype 2a, UniProt P26660); assay: HCV protease type 2a, 13-mer substrate; format: biochemical
T1 construct: the catalytic domains of types 1b, 1J and 2a have also been examined
Text: It is understood that other forms of HCV protease may be used in an assay for the determination of inhibitors. The present invention has disclosed the 1A form of HCV protease, however, the catalytic domains of types 1b, 1J and 2a have also been examined, as well as, the full-length version of form 1b. Evidence for the exosite exists in each case. Activation by Q9692 follows the trend of activation by NS4a. Forms of the enzyme that are more sensitive to NS4a display greater stimulation by Q9692 than forms that are less sensitive. In rank order sensitivity is 1J, 1B, 1A, and 2A. The catalytic activity of 2A toward the 9-mer substrate is enhanced by only 1.5-fold at 4 μM Q9692 and becomes inhibited by Q9692 at concentrations greater than 20 μM. […] Use of alternative forms of the HCV protease is relevent to development of an inexpensive and easy continous assay.

[1] = molecular target: T2, HCV NS3 protease, genotype 1a (Hepatitis C virus genotype 1a, UniProt P26664); format: biochemical; conditions: P6-P3′ ester substrate, NS4a=0, relative to controls without Q9692
T2 construct: NS3 protease catalytic domain (amino acids 1 to 192); MGAQH expression leader (5 aa), or alternatively the 15 aa His tag […]; made in house; host or cells: E. coli BL21 (DE3)

CC(=O)N[C@@H](CC(=O)O)C(=O)N[C@@H](CCC(=O)O)C(=O)N[C@H](C(=O)N[C@@H](CCC(=O)O)C(=O)N[C@@H](CC1CCCCC1)C(=O)N[C@@H](CS)C(=O)O)C(c1ccccc1)c1ccccc1 [Q9692, Ac-Asp-Glu-Dpa-Glu-Cha-Cys—OH] (Ac-DE[Dip]E[Cha]C-OH)
Ki (HCV protease 2A): ~250 nM | relative activity of the protease [1]: ~1
